# Test results published in patent US20120121753A1, “COMPOSITIONS AND METHODS FOR PREVENTION AND TREATMENT OF OBESITY AND OBESITY RELATED METABOLIC SYNDROME” (JINIS BIOPHARMACEUTICALS CO., priority 2009, published 2012).
# Tests used:
# [1] = system: gastric and pancreatic lipase; conditions: background statement; cited from earlier work
# [2] = system: Male SD rats; test: Effect of FARM3 on diet-induced obesity (4 weeks, obese rats); format: in vivo, rat; conditions: 4 weeks of treatment
# Excerpt: The 3 month old male SD rats were given high-fat feed (described above) for 8 weeks to develop diet-induced obesity with average body weight of 425 g. The rats were randomly divided into groups (n=14 per group) and received fermented yogurt or drug under continued high-fat diet conditions: 3179 group (high fat diet with yogurt fermented by L. acidophilus KCTC 3179 strain), FARM3 group (high fat diet with yogurt fermented by FARM3 mutant), Orlistat™ (high fat diet with Xenical™ in an amount of 200 mg/kg diet).
# The 3 month old male SD rats were given high-fat feed for 8 weeks to develop diet-induced obesity with average body weight of 425 g. The diet-induced obese rats were administered daily yogurt fermented with wild-type Lactobacillus 3179 (∘, high fat diet with yogurt fermented by L. acidophilus KCTC3179 strain), yogurt fermented with FARM3 ([…], high fat diet with yogurt fermented by FARM3) or Orlistat™ (Δ, high fat diet with Xenical™ 200 mg/kg diet) under continued high-fat diet condition for 4 weeks.
smiles,measurement,setting,value
"CCCCCCCCCCC[C@@H](C[C@@H]1OC(=O)[C@H]1CCCCCC)OC(=O)[C@H](CC(C)C)NC=O [Orlistat™, Orlistat]",reduction of dietary fat absorption,[1],approximately 30%
same,oily feces,[2],oily feces
